Laboratory results as given in patent US9820954B2, “Quantitative peri-orbital application of ophthalmology drugs” (JENIVISION INC., priority 2015, dated 2017).
Where “and” joins values, the source holds several entries; their conditions need not be identical. Identical values can stand only once.

Legend:
Cynomolgus monkeys [1] = assay: Ocular surface hyperemia assessment (conjunctival congestion) in Cynomolgus monkeys; assay type: in vivo, Cynomolgus monkey; parameters: key to Conjunctival Congestion, hyperemia score: 0: Normal Appearance; 0.5: Very Slight Redness or Dilation of Conjunctival Vessels; 1: More Obvious Redness or Dilation of Conjunctival Vessels; 2: Whole Conjunctiva Exhibiting Pronounced Red Coloration. Visual Clarification of Individual Conjunctival Vessels Difficult.; 3: Whole Conjunctiva Exhibiting Pronounced Red Coloration. Visual Clarification of Individual Iridial Vessels Impossible. Accompany Conjunctival Edema; conditions: for Conjunctival Congestion, hyperemia score: left eyes, one value per animal
Method: (§1) Day 2 Intraocular pressure was measured in both eyes of the 6 selected animals. Before dosing the monkeys, the delivery of vehicle (Polyethylene glycol 400) and the compound (3-[(3′-fluoro-4-fluorobiphenyl-3-carbonyl) amino] phenoxyacetic acid isopropyl ester from the roller-ball applicator bottle was checked by rolling it along a solid surface (e.g. glass or plastic) until the liquid flowed freely from the roller-ball. The formulation of (3-[(3′-fluoro-4-fluorobiphenyl-3-carbonyl) amino] phenoxyacetic acid isopropyl ester was applied immediately afterwards by rolling the roller-ball slowly around the skin surrounding the left eye socket of each monkey. The roller-ball was rolled around this area 5 times for each monkey. The same drug application procedure was performed for the vehicle (Polyethylene glycol 400) to the right eye socket of each monkey. Intraocular pressure was measured in both eyes at 3 hours post-drug and vehicle application and again at 5 hours post-drug and vehicle application. The conjunctivae of both eyes were checked for redness at the end of the daily experimental period.
(§2) Day 8; Intraocular pressure was measured in both eyes and the conjunctivae were checked for redness/hyperemia.
(§3) Day 15; Intraocular pressure in was measured in both eyes and the conjunctivae were checked for redness/hyperemia.

Cynomolgus monkeys [2] = assay: Intraocular pressure after periorbital roller-ball application in Cynomolgus monkeys; assay type: in vivo, Cynomolgus monkey; parameters: Ocular Pressure (Left Eye), Mean: unit not given beside the values; conditions: for Ocular Pressure (Left Eye), Mean: treated left eye, n=6
Method: Day 1; 8 Cynomolgus monkeys, which are the favored animal model for glaucoma studies, were assigned to the study. Intraocular pressure was measured in both eyes. The 6 animals with the highest intraocular pressure were selected for study.
as §1
Day 3; Repeat the operation of Day 2.
Day 4; Repeat the operation of Day 2.
Day 5; Repeat the operation of Day 2.
Days 6 and 7, no drug administered.
as §2, §3
This is very unusual as most IOP lowering drugs are administered daily in order to continuously lower IOP.

patient [3] = assay: Periorbital application in a patient with bacterial conjunctivitis (patient example); assay type: in vivo, human; conditions: Example VIII: 0.3% w/w cream (Composition 3, Table II), periorbital skin of the right eye daily
Source text: A pediatric patient suffers from bacterial conjunctivitis in their right eye.

patient [4] = assay: Periorbital application for ocular pain/inflammation after cataract surgery (patient example); assay type: in vivo, human; conditions: Example IX: 0.1% w/v solution (formula 5, table 1) once a day for five days, periorbital skin of both eyes
Source text: A person is suffering from ocular/pain inflammation after cataract surgery.

## CC(C)OC(=O)COc1cccc(NC(=O)c2cc(-c3cccc(F)c3)ccc2F)c1 [3-[(3′-fluoro-4-fluorobiphenyl-3-carbonyl)amino] phenoxyacetic acid isopropyl ester]
Cynomolgus monkeys [1]; 150407 (12:00) (Day 2, 3 hr post)
  Conjunctival Congestion, hyperemia score: 0
Cynomolgus monkeys [1]; 150407 (14:00) (Day 2, 5 hr post)
  Conjunctival Congestion, hyperemia score: 0
Cynomolgus monkeys [1]; 150408 (12:00) (Day 3, 3 hr post)
  Conjunctival Congestion, hyperemia score: 0
Cynomolgus monkeys [1]; 150408 (14:00) (Day 3, 5 hr post)
  Conjunctival Congestion, hyperemia score: 0
Cynomolgus monkeys [1]; 150409 (12:00) (Day 4, 3 hr post)
  Conjunctival Congestion, hyperemia score: 0
Cynomolgus monkeys [1]; 150409 (14:00) (Day 4, 5 hr post)
  Conjunctival Congestion, hyperemia score: 0
Cynomolgus monkeys [1]; 150410 (12:00) (Day 5, 3 hr post)
  Conjunctival Congestion, hyperemia score: 0
Cynomolgus monkeys [1]; 150410 (14:00) (Day 5, 5 hr post)
  Conjunctival Congestion, hyperemia score: 0
Cynomolgus monkeys [1]; 150413 (8:00) (Day 8)
  Conjunctival Congestion, hyperemia score: 0.6 and 0 (4×) and 0.5
Cynomolgus monkeys [1]; 150420 (8:00) (Day 15)
  Conjunctival Congestion, hyperemia score: 0
Cynomolgus monkeys [1]; Cynomolgus monkeys, exception: very slight redness on Day 7 in two monkeys
  surface hyperemia (summary of Table IV): almost no surface hyperemia
Cynomolgus monkeys [2]; Cynomolgus monkeys, periorbital application, versus normal baseline
  reductions in intraocular pressure (Table III and FIG. 2): Statistically significant reductions
Cynomolgus monkeys [2]; Day 2-3 hr post, in Polyethylene glycol 400, dosed Days 2-5, baseline Day 1 17.8 / 18.3
  Ocular Pressure (Left Eye), Mean: 18.0
Cynomolgus monkeys [2]; Day 2-5 hr post, baseline Day 1 17.8 / 18.3
  Ocular Pressure (Left Eye), Mean: 17.8
Cynomolgus monkeys [2]; Day 3-3 hr post
  Ocular Pressure (Left Eye), Mean: 12.2
Cynomolgus monkeys [2]; Day 3-5 hr post
  Ocular Pressure (Left Eye), Mean: 12.3
Cynomolgus monkeys [2]; Day 4-3 hr post
  Ocular Pressure (Left Eye), Mean: 10.9
Cynomolgus monkeys [2]; Day 4-5 hr post
  Ocular Pressure (Left Eye), Mean: 10.6
Cynomolgus monkeys [2]; Day 5-3 hr post
  Ocular Pressure (Left Eye), Mean: 8.4
Cynomolgus monkeys [2]; Day 5-5 hr post
  Ocular Pressure (Left Eye), Mean: 9.1
Cynomolgus monkeys [2]; Day 8-8:00am, no drug after Day 5
  Ocular Pressure (Left Eye), Mean: 8.5
Cynomolgus monkeys [2]; Day 15-8:00, no drug after Day 5
  Ocular Pressure (Left Eye), Mean: 17.4
Cynomolgus monkeys [2]; after five doses
  IOP lowering (FIG. 2): long term IOP lowering
Cynomolgus monkeys [2]; periorbital skin, single administration and/or after a series of single administrations
  duration of IOP lowering: 7 to 14 days

## O=C(O)c1cn(C2CC2)c2cc(N3CCNCC3)c(F)cc2c1=O [ciprofloxacin]
Patient [3]
  bacterial conjunctivitis: bacterial infection disappears

## C[C@]12C=CC(=O)C=C1CC[C@@H]1[C@@H]2[C@@H](O)C[C@@]2(C)[C@H]1CC[C@]2(O)C(=O)CO [prednisolone]
Patient [4]
  ocular pain and inflammation after cataract surgery: reduces the pain and inflammation
